# Patent publication US20230233576A1, “ECLITASERTIB FOR USE IN TREATING CONDITIONS INVOLVING SYSTEMIC HYPERINFLAMMATORY RESPONSE” (priority 2020, published 2023)
# Values joined by “and” are separate entries in the source; they are usually repeats but may differ in a detail not shown here. Identical values can stand only once. Like-named read-outs stand apart in the source and are kept apart here.
# Columns and labels:
# Assay type in all cases: in vivo, human
# [1] = tested on: C-reactive protein (CRP) levels; experiment: Phase 1b severe COVID-19 study: CRP level; details: 600 mg; for CRP raw data Mean / CRP relative change from baseline Mean / CRP raw data Median / CRP relative change from baseline Median: observed; for CRP raw data Mean / CRP relative change from baseline Mean: no imputation
# [2] = Phase 1b severe COVID-19 study: pharmacokinetics (plasma concentrations, Bayesian population PK); details: for AUC(0-t) / Cmax: human, oral, 300 mg
# Experimental: RIPK1 Inhibitor concentrations at selected time points over the two weeks of treatment were summarized by descriptive statistics. PK parameters such as Cmax, tmax, and AUC were calculated by a Bayesian analysis: the main results are presented in Section 5.2.
# Descriptive statistics on plasma concentration of RIPK1 Inhibitor were analyzed by the Sponsor's Biostatistics Department.
# Plasma concentrations of RIPK1 Inhibitor was listed and summarized by arithmetic mean, geometric mean, standard deviation (SD), standard error of the mean (SEM), coefficient of variance (%) (CV), minimum, median, maximum, and number of observations by timepoints. When applicable, relevant data were summarized by route: i.e., oral and oral gavage, and timepoints.
# The pharmacokinetic parameters in participants with severe COVID-19 were assessed by Bayesian analysis using a POP population PK model (P0H0757) developed in other Phase 1 studies.
# PK parameters were determined for 46 participants (one participant was excluded because all plasma concentrations were BLOQ). A summary of descriptive statistics on RIPK1 Inhibitor plasma AUC0-12, Cmax, and Ctrough over 2 weeks of treatment are presented in Table 43.
# [3] = tested on: adult participants hospitalized for severe COVID-19; experiment: Phase 1b severe COVID-19 study: vital signs abnormalities (PCSA); details: 600 mg, TEAE period
# Experimental: Physical examination including lung auscultation and assessment of consciousness, vital sign, electrocardiogram (ECG) parameters were measured per protocol.
# For laboratory parameters (hematology, clinical chemistry, and urinalysis), vital signs, and ECG, incidences of potentially clinically significant abnormality (PCSA) values, actual values and change from baseline were summarized by treatment group.
# For all laboratory, vital signs and ECG parameters, raw data and change from baseline were summarized in descriptive statistics by treatment group and scheduled time of measurement, with the exception of AST, ALT and alkaline phosphatase: instead of summarizing data in descriptive statistics, participants' profiles were presented through graphics by treatment group and with a color code to identify sites. The reason was that blood samples were processed by local laboratories with different normal ranges. For the rest of clinical laboratory these parameters it is reasonable to pool data as they are standard procedure and no significant differences in normal ranges were expected.
# [4] = tested on: adult participants hospitalized for severe COVID-19; experiment: Phase 1b severe COVID-19 study: 7-point clinical scale; details: 600 mg
# Text: Exploratory clinical assessments endpoints included: • Change from baseline in ferritin and LDH at Day 7 and EOT • Proportion of participants per category of the 7-point clinical scale at EOT • Time to improvement by 2 points in category of 7-point clinical scale • Quantitative SARS-COV-2 viral load in blood at baseline and on Day 3, 5, 7 and EOT
# The 7-point clinical scale is described below: • 1. Death • 2. Hospitalized, on invasive mechanical ventilation or ECMO • 3. Hospitalized, on non-invasive ventilation or high flow oxygen devices • 4. Hospitalized, requiring supplemental oxygen • 5. Hospitalized, not requiring supplemental oxygen—requiring ongoing medical care (COVID-19 related or otherwise) • 6. Hospitalized, not requiring supplemental oxygen—no longer requires ongoing medical care • 7. Not hospitalized
# [5] = Day 03, MMRM, LOCF, Efficacy population
# [6] = Day 05, MMRM, LOCF, Efficacy population
# [7] = Day 07, MMRM, LOCF, Efficacy population
# [8] = Day 15, MMRM, LOCF, Efficacy population
# [9] = Kaplan-Meier, Efficacy population
# [10] = EOT, Efficacy population (N = 41)
compound,measurement,setting,value
"CN1C(=O)[C@@H](NC(=O)c2nnc(Cc3ccccc3)[nH]2)COc2cccnc21 [RIPK1 Inhibitor, (S)-5-benzyl-N-(5-methyl-4-oxo-2,3,4,5-tetrahydropyrido[3,2-b][1,4]oxazepin-3-yl)-4H-1,2,4-triazole-3-carboxamide]","Percent change from baseline in CRP, point estimate",[1]; [5],−12.85%
same,"Relative change from baseline in CRP, point estimate (geometric means)",[1]; [5],0.87
same,CRP raw data Mean,"[1]; Day 3, Efficacy population",59.4 mg/L
same,CRP relative change from baseline Mean,"[1]; Day 3, Efficacy population",0.58 and 0.581
same,CRP raw data Median,"[1]; Day 3, Efficacy population",44.4 mg/L
same,CRP relative change from baseline Median,"[1]; Day 3, Efficacy population",0.384
same,"relative change from baseline in CRP, RIPK1 Inhibitor versus placebo ratio","[1]; Day 3, with imputation of missing data",0.91
same,"relative change from baseline in CRP, RIPK1 Inhibitor versus placebo ratio","[1]; Day 3, without imputation of missing data",0.92
same,"Percent change from baseline in CRP, point estimate",[1]; [6],−51.43%
same,"Relative change from baseline in CRP, point estimate (geometric means)",[1]; [6],0.49
same,CRP raw data Mean,"[1]; Day 5, Efficacy population",37.7 mg/L
same,CRP relative change from baseline Mean,"[1]; Day 5, Efficacy population",0.37 and 0.368
same,CRP raw data Median,"[1]; Day 5, Efficacy population",24.2 mg/L
same,CRP relative change from baseline Median,"[1]; Day 5, Efficacy population",0.195
same,"relative change from baseline in CRP, RIPK1 Inhibitor versus placebo ratio","[1]; Day 5, with imputation of missing data",0.70
same,"relative change from baseline in CRP, RIPK1 Inhibitor versus placebo ratio","[1]; Day 5, without imputation of missing data",0.73
same,mean of relative change from baseline in CRP,"[1]; Day 7, LOCF imputation",0.315
same,median of relative change from baseline in CRP,"[1]; Day 7, LOCF imputation",0.165
same,"Percent change from baseline in CRP, point estimate",[1]; [7],−64.81%
same,"Relative change from baseline in CRP, point estimate (geometric means)",[1]; [7],0.35
same,"ratio of the adjusted relative change from baseline in CRP, RIPK1 Inhibitor vs placebo (point estimate)","[1]; Day 7, MMRM, LOCF, Efficacy population, below 1 = larger decrease than placebo",0.85
same,observed mean of CRP,"[1]; Day 7, missing values imputed with LOCF",28.1 mg/L
same,CRP raw data Mean,"[1]; Day 7, Efficacy population",24.2 mg/L
same,CRP relative change from baseline Mean,"[1]; Day 7, Efficacy population",0.289
same,CRP raw data Median,"[1]; Day 7, Efficacy population",14.0 mg/L
same,CRP relative change from baseline Median,"[1]; Day 7, Efficacy population",0.119
same,"Percent change from baseline in CRP, point estimate",[1]; [8],−71.76%
same,"Relative change from baseline in CRP, point estimate (geometric means)",[1]; [8],0.28
same,CRP raw data Mean,"[1]; Day 15, Efficacy population",29.2 mg/L
same,CRP relative change from baseline Mean,"[1]; Day 15, Efficacy population",0.380
same,CRP raw data Median,"[1]; Day 15, Efficacy population",9.6 mg/L
same,CRP relative change from baseline Median,"[1]; Day 15, Efficacy population",0.092
same,median time for 50% decrease in CRP level relative to baseline,[1]; [9],3 days
same,participants with 50% decrease from baseline in CRP,[1]; by Day 3,69.2%
same,steady state reached on,"[2]; 300 mg BID for up to 14 days, severe COVID-19",3 days
same,exposure difference between male and female,"[2]; 300 mg BID, severe COVID-19",No obvious exposure difference
same,higher AUC0-12h in patients<85.6 kg as compared to ≥85.6 kg,"[2]; 300 mg BID, severe COVID-19",14%
same,"Ctrough, mean (SD)","[2]; 300 mg BID, steady state (Day 3), plasma, severe COVID-19, Bayesian population PK",2025 (783) ng/mL
same,Ctrough,"[2]; Day 1 (n = 46), Mean (SD), 300 mg BID, plasma, participants with severe COVID-19, Bayesian population PK analysis",1457 (442) ng/mL
same,Ctrough,"[2]; Day 3 (n = 42), Mean (SD), 300 mg BID, plasma, participants with severe COVID-19, Bayesian population PK analysis",2025 (783) ng/mL
same,Ctrough,"[2]; Day 7 (n = 26), Mean (SD), 300 mg BID, plasma, participants with severe COVID-19, Bayesian population PK analysis",2142 (838) ng/mL
same,Ctrough,"[2]; Day 14 (n = 10), Mean (SD), 300 mg BID, plasma, participants with severe COVID-19, Bayesian population PK analysis",2524 (875) ng/mL
same,AUC(0-t),"[2]; plasma, 300 mg BID, steady state (Day 3), plasma, severe COVID-19, Bayesian population PK, read-out: AUC0-12h, mean (SD)",42200 ng·h/mL
same,Cmax,"[2]; plasma, 300 mg BID, steady state (Day 3), plasma, severe COVID-19, Bayesian population PK, read-out: Cmax, mean (SD)",5170 ng/mL
same,AUC(0-t),"[2]; plasma, Day 1 (n = 46), Mean (SD), 300 mg BID, plasma, participants with severe COVID-19, Bayesian population PK analysis, read-out: AUC0-12",28200 ng·h/mL
same,Cmax,"[2]; plasma, Day 1 (n = 46), Mean (SD), 300 mg BID, plasma, participants with severe COVID-19, Bayesian population PK analysis, read-out: Cmax",3680 ng/mL
same,AUC(0-t),"[2]; plasma, Day 3 (n = 42), Mean (SD), 300 mg BID, plasma, participants with severe COVID-19, Bayesian population PK analysis, read-out: AUC0-12",42200 ng·h/mL
same,Cmax,"[2]; plasma, Day 3 (n = 42), Mean (SD), 300 mg BID, plasma, participants with severe COVID-19, Bayesian population PK analysis, read-out: Cmax",5170 ng/mL
same,AUC(0-t),"[2]; plasma, Day 7 (n = 26), Mean (SD), 300 mg BID, plasma, participants with severe COVID-19, Bayesian population PK analysis, read-out: AUC0-12",43800 ng·h/mL
same,Cmax,"[2]; plasma, Day 7 (n = 26), Mean (SD), 300 mg BID, plasma, participants with severe COVID-19, Bayesian population PK analysis, read-out: Cmax",5340 ng/mL
same,AUC(0-t),"[2]; plasma, Day 14 (n = 10), Mean (SD), 300 mg BID, plasma, participants with severe COVID-19, Bayesian population PK analysis, read-out: AUC0-12",48400 ng·h/mL
same,Cmax,"[2]; plasma, Day 14 (n = 10), Mean (SD), 300 mg BID, plasma, participants with severe COVID-19, Bayesian population PK analysis, read-out: Cmax",5630 ng/mL
same,participants with systolic blood pressure≤95 mmHg and decrease from baseline≥20 mmHg,[3],4 participants
same,PCSA Diastolic Blood Pressure ≤45 mmHg and decrease from baseline ≥10 mmHg,[3]; Safety population,1/47
same,PCSA Diastolic Blood Pressure ≥110 mmHg and increase from baseline ≥10 mmHg,[3]; Safety population,0/47
same,PCSA Heart Rate ≤50 beats/min and decrease from baseline ≥20 beats/min,[3]; Safety population,0/47
same,PCSA Heart Rate ≥120 beats/min and increase from baseline 20 beats/min,[3]; Safety population,1/47
same,PCSA Systolic Blood Pressure ≤95 mmHg and decrease from baseline ≥20 mmHg,[3]; Safety population,4/47
same,PCSA Systolic Blood Pressure ≥160 mmHg and increase from baseline ≥20 mmHg,[3]; Safety population,4/47
same,"7-point clinical scale category 3, participants",[4]; [10],0 n
same,"7-point clinical scale category 5, participants",[4]; [10],0 n
same,"7-point clinical scale category 6, participants",[4]; [10],0 n
same,median time to improvement by at least 2 points in the category of 7-point scale,[4]; [9],8 days
same,participants with a 7-point clinical scale score of 5 or lower,[4]; end of study treatment period or early discontinuation,15%
